Experimental data as given in PubChem BioAssay (NCI).
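Each compound was tested at five concentrations against cells in 96-well plates for 48 hours. The concentration for 50% growth inhibition is given as GI50. TGI is the concentration that stops growth completely.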

Tests used:
Test in all cases: NCI tumour cell line growth inhibition, 48 h
[1] = test system: 786-0 renal
[2] = test system: SF-295 CNS
[3] = test system: HOP-62 NSCLC
[4] = test system: EKVX NSCLC
[5] = test system: PC-3 prostate
[6] = test system: SNB-75 CNS
[7] = test system: DU-145 prostate
[8] = test system: SNB-19 CNS
[9] = test system: NCI-H226 lung
[10] = test system: OVCAR-8 ovarian

Structure (SMILES)	GI50 [1] [µM]	TGI [1] [µM]	GI50 [2] [µM]	TGI [2] [µM]	GI50 [3] [µM]	TGI [3] [µM]	GI50 [4] [µM]	TGI [4] [µM]	GI50 [5] [µM]	TGI [5] [µM]	GI50 [6] [µM]	TGI [6] [µM]	GI50 [7] [µM]	TGI [7] [µM]	GI50 [8] [µM]	TGI [8] [µM]	GI50 [9] [µM]	TGI [9] [µM]	GI50 [10] [µM]	TGI [10] [µM]
C=C1C(=O)O[C@H]2[C@H]1CC/C(Cn1cc(Cn3ccc4ccccc43)nn1)=C\CC[C@@]1(C)O[C@@H]21	1.59	3.12	7.87	21.3	6.96	20.1	1.86	4.22	1.47	2.98	2.61	15.6	1.64	3.01	3.88	15.7	1.53	3.06	2.73	8.22
CCOC(=O)c1c(C)nc2ccc(Cl)cc2c1-c1ccccc1	17	35.1	19.4	46.8	15	31.7	25.6	88.2	20	65.9	21.8	64.9	31.6	> 100	14.4	34.9	19.2	39.7	26.7	> 100
CN(C)CCCN(c1nc(C(Cl)(Cl)Cl)ns1)c1nc(C(Cl)(Cl)Cl)ns1	1.72	3.3	1.7	3.6	1.64	3.07	3.32	13	1.94	5.14	2.17	7.89	2.75	6.79	2.53	7.3	1.72	3.42	1.77	3.52
COc1cc(C#N)cc(OC)c1OCCOCCOc1c(OC)cc(C#N)cc1OC	> 100	> 100	84.9	> 100	> 100	> 100	> 100	> 100	31.9	> 100	> 100	> 100	> 100	> 100	94.4	> 100	81.2	> 100	51.3	> 100
O=C1N=C(c2ccccc2)OC1C(=O)c1ccccc1 (stereo not given)	–	> 100	–	> 100	–	> 100	–	> 100	–	> 100	–	> 100	–	> 100	–	> 100	–	> 100	–	> 100
